Laboratory results reported in US7825103B2, “Pyrimidine nucleoside compound or its salt” (Taiho Pharmaceutical Co., Ltd., priority 2005, dated 2010).

Tests used:
[1] = system: Human large intestine cancer cell strain KM20C; test: Anti-tumor test using nude mouse subcutaneous implantation system with peroral administration of CNDAC compound; assay type: in vivo, BALB/cA Jcl-nu mice; settings: Mus musculus, sc, 696 h; peroral once a day for 14 days, dose equivalent by mole to 18 mg/kg/day of CNDAC; day 29 after grouping; KM20C subcutaneous implant; read-out: IR (%) tumor growth inhibition rate
Procedure: (§1) Human large intestine cancer cell strain KM20C was subcutaneously subcultured in BALB/cA Jcl-nu mice (CLEA Japan, Inc.), and the resultant cancer tissues were cut into 2 mm dice fragments. Each of the fragments was subcutaneously implanted to a 6-week-old BALB/cA Jcl-nu mouse at the back thereof. On day 14 after the implantation, large and small diameters of the resultant tumor were measured, and the volume of the tumor was calculated by the following equation. The mice were grouped (6 animals per group) so that the groups were roughly equal in terms of average tumor volume. Vt=½(Vl)×(Vs)^2 (Equation 1) In the equation, Vt represents tumor volume, Vl represents large diameter of tumor, and Vs represents small diameter of tumor.
Each CNDAC compound was dissolved or suspended in 0.5% hydroxypropyl methyl cellulose solution which had been buffered with 100 mM citrate buffer (pH 6.0). From the next day after grouping, the mixture was perorally administered to each mouse once a day for consecutive 14 days in a dose which is equivalent, by mole, to 18 mg/kg/day of CNDAC.
On day 29 after the grouping, large and small diameters of the subcutaneously implanted tumor of each mouse were measured, and relative tumor volume (RTV) and inhibition rate (IR) were calculated by the following equations to evaluate anti-tumor effect of the compound. RTV=Vt1/Vt2 (Equation 2) In the equation, RTV represents ratio of tumor volume, Vt1 represents tumor volume measured on the day of determination, and […]. IR(%)=[1−(RTVtest)/(RTVcont)]×100 (Equation 3) In the equation, IR represents tumor growth inhibition rate, RTVtest represents mean RTV value of a drug-administered group, and RTVcont represents mean RTV value of a non-treatment group.

[2] = system: Human large intestine cancer cell strain KM20C; test: Anti-tumor test using nude mouse subcutaneous implantation system, peroral administration in an equitoxic dose; assay type: in vivo, BALB/cA Jcl-nu mice; settings: peroral once a day for 14 days, FIG. 1
Procedure: as §1, with “15” for “14”, “through use of” for “by”, “the” for “the groups were roughly equal in terms of”, “volume was common to each group.” for “volume.”, “5)” for “1)”
CNDAC, P-CNDAC, or Compound 19 was dissolved or suspended in 0.5% hydroxypropyl methyl cellulose solution which had been buffered with 100 mM citrate buffer (pH 5.0). From the next day of grouping, the mixture was perorally administered to each mouse once a day for consecutive 14 days in an equitoxic dose.
Large and small diameters of the subcutaneously implanted tumor of each mouse were measured twice a week, and relative tumor volume (RTV) was calculated as an index indicating tumor growth through use of the following equations to evaluate anti-tumor effect of the compound. RTV=Vt1/Vt2 (Equation 6) In the equation, RTV represents ratio of tumor volume, Vt1 represents tumor volume measured on the day of determination, and Vt2 represents tumor volume measured on the day of grouping.

Structure (SMILES): CC(C)C(C)(C)[Si](C)(C)O[C@H]1[C@H](C#N)[C@H](n2ccc(N)nc2=O)O[C@@H]1CO [Example 19, 3′-O-Dimethylthexylsilyl-2′-cyano-2′-deoxy-1-β-D-arabinofuranosylcytosine]
- inhibition in vivo [1]: 89%
- melting point: 159 to 161 °C
- deletion of tumor ([2]; 6 animals per group): deletes tumor in three cases in total six cases
- change in tumor volume (RTV) [2]: greatly reduces the tumor volume as compared with CNDAC and P-CNDAC
